Source: PubChem BioAssay (NCI)
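Exposure lasted 48 hours, with cells grown in 96-well plates and compounds tested at five concentrations. At the GI50, growth is halved. TGI is the concentration that stops growth completely.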

Experiments:
Experiment in all cases: inhibition of tumour cell growth, NCI panel, 48 h
SK-OV-3 ovarian = test system: SK-OV-3 ovarian
786-0 renal = test system: 786-0 renal
OVCAR-5 ovarian = test system: OVCAR-5 ovarian
NCI-H226 lung = test system: NCI-H226 lung
MOLT-4 leukemia = test system: MOLT-4 leukemia
TK-10 renal = test system: TK-10 renal
UO-31 renal = test system: UO-31 renal
RPMI-8226 leukemia = test system: RPMI-8226 leukemia
NCI-H460 lung = test system: NCI-H460 lung

SMILES	TGI (SK-OV-3 ovarian)	TGI (786-0 renal)	TGI (OVCAR-5 ovarian)	TGI (NCI-H226 lung)	TGI (MOLT-4 leukemia)	TGI (TK-10 renal)	TGI (UO-31 renal)	TGI (RPMI-8226 leukemia)	TGI (NCI-H460 lung)	GI50 (SK-OV-3 ovarian)	GI50 (786-0 renal)	GI50 (RPMI-8226 leukemia)	GI50 (OVCAR-5 ovarian)	GI50 (MOLT-4 leukemia)	GI50 (TK-10 renal)	GI50 (NCI-H460 lung)	GI50 (UO-31 renal)	GI50 (NCI-H226 lung)
CN(C)C(=S)/N=c1\ssc(=Nc2ccccc2)n1-c1ccccc1	80.5 µM	37.1 µM	> 100 µM	26.7 µM	> 100 µM	64.4 µM	> 100 µM											
COc1ccc(OCC(=O)O)c2c1CCC(C)C2=O (stereo not drawn)	> 100 µM	> 100 µM	> 100 µM		> 100 µM	> 100 µM	> 100 µM	> 100 µM	> 100 µM									
Cc1cccc(C=NC23CC4CC(CC(C4)C2)C3)c1	> 100 µM	> 100 µM	> 100 µM	> 100 µM	> 100 µM	> 100 µM	> 100 µM	> 100 µM	> 100 µM									
O=C(Nc1ccccc1)N1C(c2ccccc2)=N[C@@H](c2ccccc2)[C@@H]1c1ccccc1		34.7 µM	45.1 µM	46.4 µM	44.5 µM	76.1 µM	30.6 µM	61.3 µM	> 100 µM									
N.N.N.N.O=S([O-])[O-].[Co+3].[N-]=[N+]=[N-]	> 100 µM	> 100 µM	> 100 µM		> 100 µM	> 100 µM	> 100 µM	> 100 µM	> 100 µM	> 100 µM	> 100000 nM	> 100 µM	> 100000 nM	> 100000 nM	> 100 µM	> 100 µM	> 100000 nM	
CCOC(=N)CC(=O)Nc1ccccc1CC	> 100 µM	> 100 µM	> 100 µM	> 100 µM	> 100 µM	> 100 µM	> 100 µM		> 100 µM									
C[C@@H]1CC2(C[C@@H](C)C3[C@@H](CC4(C)CCCC5C6=CC(O)(CC[C@]34C)OC6=CC(=O)OC5(C)C)O2)OC1=O (stereo partly drawn)	> 100 µM	> 100 µM	> 100 µM	> 100 µM	> 100 µM	> 100 µM	> 100 µM	> 100 µM										
C=C(c1ccccc1)c1cc2c(=O)[nH]ccc2n1C	69.4 µM	> 100 µM	> 100 µM		> 100 µM	> 100 µM	66.1 µM	> 100 µM	> 100 µM									
O=C(Cc1nc2ccccc2s1)C(=O)Nc1cccc(C(F)(F)F)c1	> 100 µM	> 100 µM		> 100 µM	> 100 µM	> 100 µM	> 100 µM		> 100 µM									
O=C(O)C1CC2C=CCC(C2)C1 (stereo not drawn)	> 100 µM	> 100 µM	> 100 µM	> 100 µM	> 100 µM	> 100 µM	> 100 µM	> 100 µM	> 100 µM									
C/C(=C\c1ccccc1)C(=O)c1c(C)cc(C)cc1C	> 100 µM	> 100 µM		> 100 µM	> 100 µM	> 100 µM	> 100 µM	> 100 µM	> 100 µM									
Cn1cnnc1Sc1c([N+](=O)[O-])nc(-c2ccc([N+](=O)[O-])cc2)n1C	> 100 µM	31.8 µM	52 µM	89.9 µM	31.8 µM	32.9 µM	28 µM	37.8 µM	> 100 µM									
Cc1nc(Nc2ccc(Cl)cc2)sc1C(=O)Nc1cccc2c(=O)[nH][nH]c(=O)c12	> 100 µM	47.9 µM	> 100 µM	> 100 µM	50.4 µM	> 100 µM	> 100 µM		88.6 µM									
Nc1ccc(C(=O)N/C(=C\c2ccc3c(c2)OCO3)c2nc3ccccc3s2)cc1	36.2 µM	23.7 µM	36.5 µM			34 µM	29 µM											
COc1ccccc1/C=C(\NC(=O)c1ccccc1)c1nc2ccccc2[nH]1	> 100 µM	> 100 µM	> 100 µM		> 100 µM	> 100 µM	> 100 µM	51.7 µM	> 100 µM									
NCCOCCOCC(=O)O	> 100 µM	> 100 µM	> 100 µM	> 100 µM	> 100 µM	> 100 µM	> 100 µM	> 100 µM										
COc1cccc(C=NC23CC4CC(CC(C4)C2)C3)c1	> 100 µM	> 100 µM	> 100 µM	> 100 µM	> 100 µM	> 100 µM	> 100 µM	> 100 µM	> 100 µM									

SMILES	TGI (SK-OV-3 ovarian)	TGI (786-0 renal)	TGI (OVCAR-5 ovarian)	TGI (NCI-H226 lung)	TGI (MOLT-4 leukemia)	TGI (TK-10 renal)	TGI (UO-31 renal)	TGI (RPMI-8226 leukemia)	TGI (NCI-H460 lung)	GI50 (SK-OV-3 ovarian)	GI50 (786-0 renal)	GI50 (RPMI-8226 leukemia)	GI50 (OVCAR-5 ovarian)	GI50 (MOLT-4 leukemia)	GI50 (TK-10 renal)	GI50 (NCI-H460 lung)	GI50 (UO-31 renal)	GI50 (NCI-H226 lung)
COC(=O)C1=C(O)c2cc(OC)c(OC)c(OC)c2C(c2ccc3c(c2)OCO3)[C@@H]1C(=O)OC (stereo partly drawn)	8.76 µM	> 100 µM	> 100 µM	> 100 µM	> 100 µM	> 100 µM	> 100 µM	> 100 µM	> 100 µM									
COc1c2c(c(O)c3c4c(c(C)cc13)C1OC3(C(OC)OC5CC(C)(O)C(OC6CC(C)(O)C(O)C(C)O6)C(C)O5)OC1C(OC)(O4)C31CO1)C(=O)C(O)CC2OC1CC(C)(O)C(OC(C)=O)C(C)O1 (stereo not drawn)	0.714 µM	< 0.0115 µM	< 0.01 µM	< 0.01 µM	0.102 µM	18.6 µM	0.154 µM	< 0.01 µM	0.15 µM									
O=C1N=C2N=C(c3ccc(Cl)cc3)N(c3ccc(Cl)cc3)N2Sc2ccccc21	> 100 µM	> 100 µM	> 100 µM	> 100 µM	> 100 µM	> 100 µM	> 100 µM	> 100 µM	> 100 µM									
O=C1C(=O)N(c2cc(Cl)ccc2Cl)C(=O)C(=O)C1c1nc2ccccc2s1	> 100 µM	> 100 µM	> 100 µM	> 100 µM		> 100 µM	90.8 µM	> 100 µM	> 100 µM									
CCOC(=O)/C=C/c1ccc([N+](=O)[O-])o1	> 100 µM	4.67 µM	8.13 µM	4.25 µM	13 µM	16.3 µM	3.42 µM	12.2 µM	38.9 µM	22.4 µM	2130 nM	3.18 µM	2950 nM	2760 nM	4.7 µM	18.1 µM	1690 nM	2020 nM
COc1ccc(/C=C(\C#N)c2cc(OC)c(OC)c(OC)c2)cc1	0.221 µM	34.6 µM	> 100 µM	0.0706 µM	6.85 µM	> 100 µM	58.6 µM	27 µM	23.6 µM	< 0.0138 µM	30.9 nM	0.0483 µM	42.4 nM	39.1 nM		0.0327 µM	38.9 nM	25.2 nM
CCCCn1c(-c2ccccc2)cs/c1=N\NC(=O)Cn1c(C)nc2ccccc21	> 100 µM	> 100 µM	> 100 µM	> 100 µM	57.4 µM	> 100 µM	> 100 µM	> 100 µM	> 100 µM									
O=S1(=O)CCC2=CC(C(F)(F)F)=CC(C(F)(F)F)=CN21	12.2 µM	1.09 µM	3.93 µM	5.58 µM	1.8 µM	2.13 µM	2.05 µM	2.05 µM	8.01 µM									
O=C(NCCCN1CCN(CCCNC(=O)Nc2cc(Cl)ccc2Cl)CC1)Nc1cc(Cl)ccc1Cl	> 100 µM	> 100 µM	> 100 µM	> 100 µM	> 100 µM	> 100 µM	> 100 µM	> 100 µM	> 100 µM									
CCNC(=O)COc1ccc(Cl)c(C)c1	> 100 µM	> 100 µM	> 100 µM	> 100 µM	> 100 µM	> 100 µM	> 100 µM	> 100 µM	> 100 µM									
CC(NC1CCCC[C@@H]1O)c1ccccc1 (stereo partly drawn)	> 100 µM	> 100 µM	> 100 µM	> 100 µM	> 100 µM	> 100 µM	> 100 µM	> 100 µM	> 100 µM									
c1ccc(N2CCN(CCN3CCc4c([nH]c5ccccc45)C3c3cccnc3)CC2)cc1 (stereo not drawn)	95.2 µM	> 100 µM	> 100 µM		> 100 µM	> 100 µM	> 100 µM	> 100 µM	> 100 µM									
Nc1ccccc1SC(/C=C/NNC1=NC(c2ccccc2)C(c2ccccc2)=NN1)c1ccccc1 (stereo not drawn)	44.4 µM	25 µM	37.1 µM	30.4 µM	15.7 µM	33.3 µM	18.4 µM	10.1 µM	51.9 µM									
C[C@]12CC[C@H](OC(=O)Nc3ccccc3)CC1=CC[C@@H]1C2CC[C@]2(C)/C(=N/OC(=O)Nc3ccccc3)CCC12 (stereo partly drawn)	> 100 µM	> 100 µM	> 100 µM		> 100 µM	> 100 µM	7.91 µM	> 100 µM	> 100 µM									
COc1cc(C2CC(c3ccc(Cl)cc3)=NN2C(C)=O)ccc1Oc1ccnc2cc(Cl)ccc12 (stereo not drawn)		> 100 µM	> 100 µM		> 100 µM			> 100 µM			2630 nM	> 100 µM	> 100000 nM	> 100000 nM				
COC(OC)c1cccnc1C	> 100 µM	> 100 µM	> 100 µM		> 100 µM	> 100 µM	> 100 µM		> 100 µM									
